Measurements: article PMC5218480 (PLoS ONE, 2017)

System: MV-4-11 cells
Assay: Gene expression microarray analysis (Affymetrix PrimeView) and GSEA
Format: cell-based, human
Set-up: RFU PODN (11730768_x_at) / Fold change /veh PODN (11730768_x_at) / RFU LINC00158 (11744669_a_at) / Fold change /veh LINC00158 (11744669_a_at) / RFU DUSP10 (11751237_a_at) / Fold change /veh DUSP10 (11751237_a_at) / RFU ID3 (11757404_x_at) / Fold change /veh ID3 (11757404_x_at) / RFU PLEKHG5 (11737974_s_at) / Fold change /veh PLEKHG5 (11737974_s_at) / RFU LRRC4B (11730491_at) / Fold change /veh LRRC4B (11730491_at) / RFU GIMAP4 (11747438_a_at) / Fold change /veh GIMAP4 (11747438_a_at) / RFU KRT8 (11758183_x_at) / Fold change /veh KRT8 (11758183_x_at) / RFU CNN1 (11734310_a_at) / Fold change /veh CNN1 (11734310_a_at) / RFU VPS37D (11726825_at) / Fold change /veh VPS37D (11726825_at) / RFU C10orf10 (11716522_x_at) / Fold change /veh C10orf10 (11716522_x_at) / RFU KIR2DL2 /// KIR2DL4 /// KIR2DL5A /// KIR2DL5B /// KIR2DS1 /// KIR2DS2 /// KIR2DS3 /// KIR2DS4 /// KIR3DL3 /// KIR3DL3 /// KIR3DS1 (11738374_at) / Fold change /veh KIR2DL2 /// KIR2DL4 /// KIR2DL5A /// KIR2DL5B /// KIR2DS1 /// KIR2DS2 /// KIR2DS3 /// KIR2DS4 /// KIR3DL3 /// KIR3DL3 /// KIR3DS1 (11738374_at) / RFU C1QL1 (11718748_at) / Fold change /veh C1QL1 (11718748_at) / RFU TMPRSS4 (11747572_a_at) / Fold change /veh TMPRSS4 (11747572_a_at) / RFU HAMP (11756126_x_at) / Fold change /veh HAMP (11756126_x_at) / RFU RNFT2 (11725882_a_at) / Fold change /veh RNFT2 (11725882_a_at) / RFU NR4A2 (11747474_a_at) / Fold change /veh NR4A2 (11747474_a_at) / RFU ABCC12 (11746883_a_at) / Fold change /veh ABCC12 (11746883_a_at) / RFU TMEM136 (11760407_x_at) / Fold change /veh TMEM136 (11760407_x_at) / RFU CLDN22 /// WWC2 (11732394_at) / Fold change /veh CLDN22 /// WWC2 (11732394_at) / RFU HLA-DPB1 (11760878_x_at) / Fold change /veh HLA-DPB1 (11760878_x_at) / RFU SPINT1 (11716480_a_at) / Fold change /veh SPINT1 (11716480_a_at) / RFU GAP43 (11754022_s_at) / Fold change /veh GAP43 (11754022_s_at) / RFU A4GNT (11735810_at) / Fold change /veh A4GNT (11735810_at) / RFU PRB3 (11715151_x_at) / Fold change /veh PRB3 (11715151_x_at) / RFU TUBB4B (11761932_at) / Fold change /veh TUBB4B (11761932_at) / RFU CAPN14 (11732068_a_at) / Fold change /veh CAPN14 (11732068_a_at) / RFU TMCC2 (11721928_a_at) / Fold change /veh TMCC2 (11721928_a_at) / RFU IRGQ (11745062_a_at) / Fold change /veh IRGQ (11745062_a_at) / RFU FAM174B (11720279_a_at) / Fold change /veh FAM174B (11720279_a_at) / RFU TMPRSS4 (11748680_a_at) / Fold change /veh TMPRSS4 (11748680_a_at) / RFU FAM212B (11763350_a_at) / Fold change /veh FAM212B (11763350_a_at) / RFU PLEKHG5 (11743358_a_at) / Fold change /veh PLEKHG5 (11743358_a_at) / RFU ZSCAN30 (11745921_a_at) / Fold change /veh ZSCAN30 (11745921_a_at) / RFU CMKLR1 (11741424_a_at) / Fold change /veh CMKLR1 (11741424_a_at) / RFU LOC101060620 /// MAPK8IP1 (11723275_at) / Fold change /veh LOC101060620 /// MAPK8IP1 (11723275_at) / RFU SPTSSB (11747773_x_at) / Fold change /veh SPTSSB (11747773_x_at) / RFU PRSS12 (11739890_at) / Fold change /veh PRSS12 (11739890_at) / RFU BIN1 (11741810_x_at) / Fold change /veh BIN1 (11741810_x_at) / RFU WNT11 (11732464_a_at) / Fold change /veh WNT11 (11732464_a_at) / RFU C10orf10 (11716521_a_at) / Fold change /veh C10orf10 (11716521_a_at) / RFU C5orf56 (11738089_at) / Fold change /veh C5orf56 (11738089_at) / RFU CYB561 (11721691_x_at) / Fold change /veh CYB561 (11721691_x_at) / RFU ANKRD19P (11752326_a_at) / Fold change /veh ANKRD19P (11752326_a_at) / RFU OR2T12 /// OR2T33 /// OR2T8 (11738714_s_at) / Fold change /veh OR2T12 /// OR2T33 /// OR2T8 (11738714_s_at) / RFU VCAN (11748164_a_at) / Fold change /veh VCAN (11748164_a_at) / RFU JSRP1 (11732532_at) / Fold change /veh JSRP1 (11732532_at) / RFU KRTAP10-11 (11738290_x_at) / Fold change /veh KRTAP10-11 (11738290_x_at) / RFU MYO3A (11730013_a_at) / Fold change /veh MYO3A (11730013_a_at) / RFU EBF3 (11725865_a_at) / Fold change /veh EBF3 (11725865_a_at) / RFU CAMK2N1 (11719241_x_at) / Fold change /veh CAMK2N1 (11719241_x_at) / RFU C5orf56 (11738088_a_at) / Fold change /veh C5orf56 (11738088_a_at) / RFU OLFML3 (11715873_a_at) / Fold change /veh OLFML3 (11715873_a_at) / RFU LOC100653217 /// NTM (11731650_a_at) / Fold change /veh LOC100653217 /// NTM (11731650_a_at) / RFU MAPK11 (11762145_a_at) / Fold change /veh MAPK11 (11762145_a_at) / RFU FIZ1 (11724087_x_at) / Fold change /veh FIZ1 (11724087_x_at) / RFU OASL (11726364_x_at) / Fold change /veh OASL (11726364_x_at) / RFU SOX15 (11748057_x_at) / Fold change /veh SOX15 (11748057_x_at) / RFU CD79A (11719716_a_at) / Fold change /veh CD79A (11719716_a_at) / RFU HIST1H1D (11736915_at) / Fold change /veh HIST1H1D (11736915_at) / RFU CASKIN2 (11723855_a_at) / Fold change /veh CASKIN2 (11723855_a_at) / RFU LOC730098 (11760151_x_at) / Fold change /veh LOC730098 (11760151_x_at) / RFU OR4N2 (11742367_at) / Fold change /veh OR4N2 (11742367_at) / RFU PRRT2 (11749266_a_at) / Fold change /veh PRRT2 (11749266_a_at) / RFU SNX32 (11753110_a_at) / Fold change /veh SNX32 (11753110_a_at) / RFU CDHR5 (11726645_a_at) / Fold change /veh CDHR5 (11726645_a_at) / RFU RCAN1 (11760418_a_at) / Fold change /veh RCAN1 (11760418_a_at) / RFU FAM167A (11723789_a_at) / Fold change /veh FAM167A (11723789_a_at) / RFU FAM26E (11764081_at) / Fold change /veh FAM26E (11764081_at) / RFU ISYNA1 (11749810_s_at) / Fold change /veh ISYNA1 (11749810_s_at) / RFU ACY1 (11761880_at) / Fold change /veh ACY1 (11761880_at) / RFU 11764098_at / Fold change /veh 11764098_at / RFU SAMD14 (11745864_x_at) / Fold change /veh SAMD14 (11745864_x_at) / RFU NPB (11741838_a_at) / Fold change /veh NPB (11741838_a_at) / RFU TMPRSS6 (11731388_a_at) / Fold change /veh TMPRSS6 (11731388_a_at) / RFU KRTAP10-2 (11738614_at) / Fold change /veh KRTAP10-2 (11738614_at) / RFU ARHGAP8 /// PRR5-ARHGAP8 (11727945_x_at) / Fold change /veh ARHGAP8 /// PRR5-ARHGAP8 (11727945_x_at) / RFU KRTAP5-7 /// NADSYN1 (11734609_at) / Fold change /veh KRTAP5-7 /// NADSYN1 (11734609_at) / RFU RASL12 (11751679_a_at) / Fold change /veh RASL12 (11751679_a_at) / RFU CDKN2B (11736163_a_at) / Fold change /veh CDKN2B (11736163_a_at) / RFU PRF1 (11729649_at) / Fold change /veh PRF1 (11729649_at) / RFU, ZNF638 /// ZNF638-IT1 / Fold change vs veh, ZNF638 /// ZNF638-IT1 / RFU, PANK3 / Fold change vs veh, PANK3 / RFU, SH3YL1 / Fold change vs veh, SH3YL1 / RFU, ZEB2 / Fold change vs veh, ZEB2 / RFU, NRIP1 / Fold change vs veh, NRIP1 / RFU, PTTG1IP / Fold change vs veh, PTTG1IP / RFU, CAPN2 / Fold change vs veh, CAPN2 / RFU, MED14 / Fold change vs veh, MED14 / RFU, SNORA58 / Fold change vs veh, SNORA58 / RFU, C1orf63 / Fold change vs veh, C1orf63 / RFU, LRRFIP1 / Fold change vs veh, LRRFIP1 / RFU, NDUFAF7 / Fold change vs veh, NDUFAF7 / RFU, SLC12A2 / Fold change vs veh, SLC12A2 / RFU, IBTK / Fold change vs veh, IBTK / RFU, ESF1 / Fold change vs veh, ESF1 / Fold change vs veh, TMEM50B / RFU, TAOK1 / Fold change vs veh, TAOK1 / RFU, ACBD3 / Fold change vs veh, ACBD3 / RFU, TMA16 / Fold change vs veh, TMA16 / RFU, RWDD3 / Fold change vs veh, RWDD3 / RFU, BCAT1 / Fold change vs veh, BCAT1 / RFU, EDEM3 / Fold change vs veh, EDEM3 / RFU, TMEM33 / Fold change vs veh, TMEM33 / RFU, WDR75 / Fold change vs veh, WDR75 / RFU, AHCTF1 / Fold change vs veh, AHCTF1 / RFU, TFRC / Fold change vs veh, TFRC / RFU, ZDHHC17 / Fold change vs veh, ZDHHC17 / RFU, NOM1 / Fold change vs veh, NOM1 / RFU, ARL8B / Fold change vs veh, ARL8B / RFU, ZBTB11 / Fold change vs veh, ZBTB11 / RFU, TAMM41 / Fold change vs veh, TAMM41 / RFU, KIAA1704 /// LOC100996395 / Fold change vs veh, KIAA1704 /// LOC100996395 / RFU, ING1 / Fold change vs veh, ING1 / RFU, TRMT61B / Fold change vs veh, TRMT61B / RFU, FUBP3 / Fold change vs veh, FUBP3 / RFU, TP53 / Fold change vs veh, TP53 / RFU, TNKS2 / Fold change vs veh, TNKS2 / RFU, ZFP14 / Fold change vs veh, ZFP14 / RFU, ACTR2 / Fold change vs veh, ACTR2 / RFU, PPP3R1 / Fold change vs veh, PPP3R1 / RFU, PIK3R1 / Fold change vs veh, PIK3R1 / RFU, HNRNPA1 / Fold change vs veh, HNRNPA1 / RFU, RNF170 / Fold change vs veh, RNF170 / RFU, ZNF28 / Fold change vs veh, ZNF28 / RFU, RNGTT / Fold change vs veh, RNGTT / RFU, OGT / Fold change vs veh, OGT / RFU, BRD1 / Fold change vs veh, BRD1 / RFU, MARS / Fold change vs veh, MARS / RFU, ZNF655 / Fold change vs veh, ZNF655 / RFU, FAHD1 / Fold change vs veh, FAHD1 / RFU, BDP1 / Fold change vs veh, BDP1 / RFU, LRRCC1 / Fold change vs veh, LRRCC1 / RFU, ARID1A / Fold change vs veh, ARID1A / RFU, ZNF146 / Fold change vs veh, ZNF146 / RFU, ZNF330 / Fold change vs veh, ZNF330 / RFU, GPN3 / Fold change vs veh, GPN3 / RFU, C9orf123 / Fold change vs veh, C9orf123 / RFU, N4BP2L2 / Fold change vs veh, N4BP2L2 / RFU, ARFIP1 / Fold change vs veh, ARFIP1 / RFU, FAM179B / Fold change vs veh, FAM179B / RFU, BCL10 / Fold change vs veh, BCL10 / RFU, UHRF1BP1L / Fold change vs veh, UHRF1BP1L / RFU, BET1 / Fold change vs veh, BET1 / RFU, CNOT2 / Fold change vs veh, CNOT2 / RFU, ZNF268 / Fold change vs veh, ZNF268 / Fold change vs veh, ZNF507 / RFU, DGCR2 / Fold change vs veh, DGCR2 / RFU, WDSUB1 / Fold change vs veh, WDSUB1 / Fold change vs veh, HSP90B1 /// MIR3652 / RFU, ADSS / Fold change vs veh, ADSS / RFU, GK / Fold change vs veh, GK / RFU, ZNF148 / Fold change vs veh, ZNF148 / RFU, TAF9 / Fold change vs veh, TAF9 / RFU, SLC1A5 / Fold change vs veh, SLC1A5 / RFU, SLMO2 / Fold change vs veh, SLMO2 / RFU, ABCC4 / Fold change vs veh, ABCC4 / RFU, LOC101060439 /// RAP1B / Fold change vs veh, LOC101060439 /// RAP1B / RFU, RFX7 / Fold change vs veh, RFX7 / RFU, GTPBP10 / Fold change vs veh, GTPBP10 / RFU, CNEP1R1 / Fold change vs veh, CNEP1R1 / RFU, BIVM-ERCC5 /// ERCC5 / Fold change vs veh, BIVM-ERCC5 /// ERCC5 / RFU, ILF3 / Fold change vs veh, ILF3 / RFU 11762660_at / Fold change /veh 11762660_at / RFU VCAN (11757783_s_at) / Fold change /veh VCAN (11757783_s_at) / RFU DDX43 (11728927_at) / Fold change /veh DDX43 (11728927_at) / RFU KRT8 (11758188_x_at) / Fold change /veh KRT8 (11758188_x_at) / RFU NKD1 (11759106_at) / Fold change /veh NKD1 (11759106_at) / RFU SRD5A1 (11742802_a_at) / Fold change /veh SRD5A1 (11742802_a_at) / RFU TPSAB1 /// TPSB2 (11721975_s_at) / Fold change /veh TPSAB1 /// TPSB2 (11721975_s_at) / RFU GSTM3 (11746129_a_at) / Fold change /veh GSTM3 (11746129_a_at) / RFU IL23R (11737362_x_at) / Fold change /veh IL23R (11737362_x_at) / RFU TMEM51 (11727254_a_at) / Fold change /veh TMEM51 (11727254_a_at) / RFU PIWIL2 (11732686_x_at) / Fold change /veh PIWIL2 (11732686_x_at) / RFU ORM1 (11744905_x_at) / Fold change /veh ORM1 (11744905_x_at) / RFU CCDC152 (11743942_at) / Fold change /veh CCDC152 (11743942_at) / RFU ECM1 (11717891_a_at) / Fold change /veh ECM1 (11717891_a_at) / RFU IL23R (11748794_a_at) / Fold change /veh IL23R (11748794_a_at) / RFU TNFAIP8L3 (11732012_x_at) / Fold change /veh TNFAIP8L3 (11732012_x_at) / RFU MBOAT4 (11741988_at) / Fold change /veh MBOAT4 (11741988_at) / RFU 11764193_at / Fold change /veh 11764193_at / RFU TMEM53 (11763286_at) / Fold change /veh TMEM53 (11763286_at) / RFU MAGEB2 (11727129_at) / Fold change /veh MAGEB2 (11727129_at) / RFU TMEM200A (11744735_a_at) / Fold change /veh TMEM200A (11744735_a_at) / RFU CCDC152 (11751479_a_at) / Fold change /veh CCDC152 (11751479_a_at) / RFU FAM211A (11726209_a_at) / Fold change /veh FAM211A (11726209_a_at) / RFU RGS16 (11746705_a_at) / Fold change /veh RGS16 (11746705_a_at) / RFU VCAN (11755009_s_at) / Fold change /veh VCAN (11755009_s_at) / RFU RHOB (11743442_s_at) / Fold change /veh RHOB (11743442_s_at) / RFU RGS16 (11720943_a_at) / Fold change /veh RGS16 (11720943_a_at) / RFU RGS16 (11720944_at) / Fold change /veh RGS16 (11720944_at) / RFU, VPS4B / Fold change vs veh, VPS4B / RFU, CREB1 / Fold change vs veh, CREB1 / RFU, DNAJC13 / Fold change vs veh, DNAJC13 / RFU, GNAQ / Fold change vs veh, GNAQ / RFU, CDK5R1 / Fold change vs veh, CDK5R1 / RFU, ZRANB3 / Fold change vs veh, ZRANB3 / RFU, CUL4A / Fold change vs veh, CUL4A / RFU, CCNY / Fold change vs veh, CCNY / RFU, UFL1 / Fold change vs veh, UFL1 / RFU, COG3 / Fold change vs veh, COG3 / RFU, DIAPH2 / Fold change vs veh, DIAPH2 / RFU, SKA2 / Fold change vs veh, SKA2 / RFU, AFF3 / Fold change vs veh, AFF3 / RFU, LMF1 / Fold change vs veh, LMF1 / RFU, IPO11 / Fold change vs veh, IPO11 / RFU, DFFB / Fold change vs veh, DFFB / RFU, FOXP1 / Fold change vs veh, FOXP1 / RFU, CARD8 / Fold change vs veh, CARD8 / RFU, STRN3 / Fold change vs veh, STRN3 / RFU, ADK / Fold change vs veh, ADK / RFU, RASSF2 / Fold change vs veh, RASSF2 / RFU, WIPF1 / Fold change vs veh, WIPF1 / RFU, LARP1B / Fold change vs veh, LARP1B / RFU, RASA1 / Fold change vs veh, RASA1 / RFU, RB1 / Fold change vs veh, RB1 / RFU, PPFIA1 / Fold change vs veh, PPFIA1 / RFU, MAT2A / Fold change vs veh, MAT2A / RFU, CCT5 / Fold change vs veh, CCT5 / RFU, WDR92 / Fold change vs veh, WDR92 / RFU, CUX1 / Fold change vs veh, CUX1 / RFU, TTC7A / Fold change vs veh, TTC7A / RFU, TMEM135 / Fold change vs veh, TMEM135 / RFU, DEPTOR / Fold change vs veh, DEPTOR / RFU, CPM / Fold change vs veh, CPM / RFU, DNAJB6 / Fold change vs veh, DNAJB6 / RFU, CACNA2D3 / Fold change vs veh, CACNA2D3 / RFU, DTX4 / Fold change vs veh, DTX4 / RFU, TFCP2 / Fold change vs veh, TFCP2 / RFU, GMCL1 /// GMCL1P1 / Fold change vs veh, GMCL1 /// GMCL1P1 / RFU, AEBP2 / Fold change vs veh, AEBP2 / RFU, SNHG1 /// SNORD22 /// SNORD25 /// SNORD26 /// SNORD27 /// SNORD28 /// SNORD29 /// SNORD31 / Fold change vs veh, SNHG1 /// SNORD22 /// SNORD25 /// SNORD26 /// SNORD27 /// SNORD28 /// SNORD29 /// SNORD31 / Fold change (Aza/veh), C12orf56 (ProbeSet 11735607_a_at) / Fold change (ACY-1035/veh), C12orf56 (ProbeSet 11735607_a_at) / Fold change (Aza/veh), FGFR1OP (ProbeSet 11751329_s_at) / Fold change (ACY-1035/veh), FGFR1OP (ProbeSet 11751329_s_at) / Fold change (Aza/veh), VPS36 (ProbeSet 11739960_a_at) / Fold change (ACY-1035/veh), VPS36 (ProbeSet 11739960_a_at) / RFU SYPL1 (11715823_x_at) / Fold change /veh SYPL1 (11715823_x_at) / RFU IGFBP7 (11715501_s_at) / Fold change /veh IGFBP7 (11715501_s_at) / RFU REEP3 (11722064_at) / Fold change /veh REEP3 (11722064_at) / RFU IGLL1 (11728026_x_at) / Fold change /veh IGLL1 (11728026_x_at): dose or concentration left out as unconfirmed
Settings: MV-4-11 cells, 48 hours

Nc1ccc(-c2cccs2)cc1NC(=O)c1ccc2c(c1)cc(C1CC1)n2CCN1CCOCC1 [ACY-1035]
Fold change /veh TPSAB1 /// TPSB2 (11721975_s_at): 0.95
